The results in this text go back to US4740233A, “Substituted 1,2,4-triazolo[1,5-a]-pyrimidine-2-sulfonamides and compositions and methods of controlling undesired vegetation and suppressing the nitrification of ammonium nitrogen in soil” (The Dow Chemical Company, priority 1986, dated 1988).

The test system of this test is nitrification of ammonium nitrogen. The test is described as follows: Suppression of nitrification of ammonium nitrogen in soil. The conditions noted are these: 27° C. The method, then: A sufficient volume of water was added to 20 g of the soil in a wide-mouth, screw-cap, 4-ounce, glass bottle, such that the moisture content of the mixture was made equal to the 1/3 bar tension value for that soil. The mixture was thoroughly mixed before sealing. […] Acetone slows the rate of soil nitrification and its concentration must be carefully controlled. Single samples of each test chemical were incubated for two weeks at 27° C.
The experiment comprised the following types of samples:
The soil samples were analyzed as follows: Sufficient ammonium sulfate extracting solution was added to the sample, such that the total volume of added water was 50 ml (included water added during sample preparation). The capped mixture was shaken 10 minutes to solubilize nitrate and the soil particulates were allowed to settle. The nitrate concentration in the water phase was determined with a nitrate-specific ion electrode such as Orion Model 93-07.
The non-nitrate nitrogen remaining (% NH4 -N remaining) in the soil after two weeks (performance value) was calculated as follows: [formula]

Consider `Cc1cc(C)n2nc(S(=O)(=O)Nc3ccc(Cl)cc3Cl)nc2n1` [Compound 20], for which the “% NH4-N Remaining After 2 Weeks Incubation” value reads like this: (0.06 ppm) 0%; (0.125 ppm) 0%; (0.25 ppm) 0%; (0.5 ppm) 5%; (1 ppm) 8%.
Consider `Cc1cc(C)n2nc(S(=O)(=O)Nc3ccccc3S(=O)(=O)c3ccccc3)nc2n1` [Compound 96], for which the “% NH4-N Remaining After 2 Weeks Incubation” value (0.6 ppm) is given as 0%; the “% NH4-N Remaining After 2 Weeks Incubation” value (1.25 ppm) is 0%; the “% NH4-N Remaining After 2 Weeks Incubation” value (2.5 ppm) stood at 7%; the “% NH4-N Remaining After 2 Weeks Incubation” value (5 ppm) is reported as 42%; the “% NH4-N Remaining After 2 Weeks Incubation” value (10 ppm) is 100%.
Regarding `CCCSc1ccccc1NS(=O)(=O)c1nc2nc(C)cc(C)n2n1` [Compound 67], the “% NH4-N Remaining After 2 Weeks Incubation” value came out at 0% (0.06 ppm), 0% (0.25 ppm), 41% (1 ppm) and 69% (4 ppm).
`Cc1cc(C)n2nc(S(=O)(=O)Nc3ccccc3S(=O)(=O)C(F)(F)F)nc2n1` [Compound 57]: the “% NH4-N Remaining After 2 Weeks Incubation” value by setting is: (0.06 ppm) 2%; (0.25 ppm) 17%; (1 ppm) 45%; (4 ppm) 69%.
With `CNc1ccccc1NS(=O)(=O)c1nc2nc(C)cc(C)n2n1` [Compound 5], the “% NH4-N Remaining After 2 Weeks Incubation” value turned out to be 0% (0.01 ppm), 0% (0.1 ppm), 1% (1 ppm) and 28% (10 ppm).
As to `CSc1ccccc1NS(=O)(=O)c1nc2nc(C)ccn2n1` [Compound 142], the “% NH4-N Remaining After 2 Weeks Incubation” value (0.01 ppm) is recorded as 0%, the “% NH4-N Remaining After 2 Weeks Incubation” value (0.1 ppm) amounted to 5%, the “% NH4-N Remaining After 2 Weeks Incubation” value (1 ppm) worked out at 62% and the “% NH4-N Remaining After 2 Weeks Incubation” value (10 ppm) was determined as 98%.
As for `COC(=O)c1ccccc1NS(=O)(=O)c1nc2nc(C)c3c(n2n1)CCC3` [Compound 109], the “% NH4-N Remaining After 2 Weeks Incubation” value came out at 0% (0.01 ppm), 0% (0.1 ppm), 41% (1 ppm) and 92% (10 ppm).
`COC(=O)c1cc2ccccc2cc1NS(=O)(=O)c1nc2nc(C)cc(C)n2n1` [Compound 245]: the “% NH4-N Remaining After 2 Weeks Incubation” value (0.06 ppm) came out at 0%, the “% NH4-N Remaining After 2 Weeks Incubation” value (0.25 ppm) turned out to be 0%, the “% NH4-N Remaining After 2 Weeks Incubation” value (1 ppm) worked out at 0% and the “% NH4-N Remaining After 2 Weeks Incubation” value (4 ppm) is reported as 30%.
In the case of `COC(=O)c1sccc1NS(=O)(=O)c1nc2nc(C)cc(C)n2n1` [Compound 257], the “% NH4-N Remaining After 2 Weeks Incubation” value (0.01 ppm) is recorded as 0%, the “% NH4-N Remaining After 2 Weeks Incubation” value (0.1 ppm) is reported as 0%, the “% NH4-N Remaining After 2 Weeks Incubation” value (1 ppm) was 0% and the “% NH4-N Remaining After 2 Weeks Incubation” value (10 ppm) worked out at 58%.
In the case of `Cc1ccn2nc(S(=O)(=O)Nc3c(C)cccc3Br)nc2n1` [Compound 148], the “% NH4-N Remaining After 2 Weeks Incubation” value by setting is: (0.6 ppm) 69%; (1.25 ppm) 75%; (2.5 ppm) 81%; (5 ppm) 89%; (10 ppm) 93%.
`Cc1cc(C)n2nc(S(=O)(=O)Nc3ccccc3Oc3ccc(C(F)(F)F)cc3Cl)nc2n1` [Compound 97]: the “% NH4-N Remaining After 2 Weeks Incubation” value is, setting by setting: (0.06 ppm) 67%; (0.25 ppm) 0%; (1 ppm) 3%; (4 ppm) 19%.
Turning to `Cc1cc(C)n2nc(S(=O)(=O)Nc3ccc(Cl)cc3Br)nc2n1` [Compound 40], the “% NH4-N Remaining After 2 Weeks Incubation” value is, setting by setting: (0.6 ppm) 0%; (1.25 ppm) 0%; (2.5 ppm) 40%; (5 ppm) 17%; (10 ppm) 66%.
`Cc1ccn2nc(S(=O)(=O)Nc3c(Cl)ccc(C)c3Cl)nc2n1` [Compound 147]: the “% NH4-N Remaining After 2 Weeks Incubation” value (0.06 ppm) is recorded as 41%, the “% NH4-N Remaining After 2 Weeks Incubation” value (0.25 ppm) was 55%, the “% NH4-N Remaining After 2 Weeks Incubation” value (1 ppm) is 72% and the “% NH4-N Remaining After 2 Weeks Incubation” value (4 ppm) amounted to 87%.
With `Cc1cc(C)n2nc(S(=O)(=O)Nc3ccccc3C(=O)O)nc2n1` [Compound 11], the “% NH4-N Remaining After 2 Weeks Incubation” value is, setting by setting: (0.01 ppm) 0%; (0.1 ppm) 0%; (1 ppm) 0%; (10 ppm) 5%.
Take `Cc1cc(C)n2nc(S(=O)(=O)Nc3c(C)cccc3C(N)=O)nc2n1` [Compound 61]: the “% NH4-N Remaining After 2 Weeks Incubation” value is reported as 20% (0.6 ppm); 34% (1.25 ppm); 65% (2.5 ppm); 89% (5 ppm); 100% (10 ppm).
`Cc1cc(C)n2nc(S(=O)(=O)Nc3c(Cl)ccc(C)c3Cl)nc2n1` [Compound 46]: the “% NH4-N Remaining After 2 Weeks Incubation” value runs as follows: (0.01 ppm) 50%; (0.1 ppm) 71%; (1 ppm) 88%; (10 ppm) 94%.
With `Cc1cc(C)n2nc(S(=O)(=O)Nc3c(C)cccc3C(=O)N(C)C)nc2n1` [Compound 62], the “% NH4-N Remaining After 2 Weeks Incubation” value was determined as 0% (0.6 ppm), 13% (1.25 ppm), 55% (5 ppm) and 75% (10 ppm).
`CSc1ccccc1NS(=O)(=O)c1nc2ncc(Cl)cn2n1` [Compound 115]: the “% NH4-N Remaining After 2 Weeks Incubation” value runs as follows: (0.06 ppm) 37%; (0.25 ppm) 41%; (1 ppm) 64%; (4 ppm) 86%.
Regarding `Cc1cc(C)n2nc(S(=O)(=O)Nc3c(F)cccc3C(=O)O)nc2n1` [Compound 27], the “% NH4-N Remaining After 2 Weeks Incubation” value runs as follows: (0.01 ppm) 0%; (0.1 ppm) 0%; (1 ppm) 0%; (10 ppm) 35%.
For `Cc1cc(C)n2nc(S(=O)(=O)Nc3cc(C(F)(F)F)ccc3S(=O)(=O)N(C)C)nc2n1` [Compound 28], the “% NH4-N Remaining After 2 Weeks Incubation” value amounted to 0% (0.01 ppm), 5% (0.1 ppm), 42% (1 ppm) and 66% (10 ppm).
As to `Cc1cc(C)n2nc(S(=O)(=O)Nc3ccc(F)cc3F)nc2n1` [Compound 29], the “% NH4-N Remaining After 2 Weeks Incubation” value is, setting by setting: (0.01 ppm) 0%; (0.1 ppm) 0%; (1 ppm) 1%; (10 ppm) 51%.
Take `Cc1cc(C)n2nc(S(=O)(=O)Nc3ccc(Cl)cc3)nc2n1` [Compound 18]: the “% NH4-N Remaining After 2 Weeks Incubation” value reads like this: (0.01 ppm) 0%; (0.1 ppm) 0%; (1 ppm) 5%; (10 ppm) 50%.
For `Cc1ccn2nc(S(=O)(=O)Nc3ccccc3[S+]([O-])C(F)(F)C(F)F)nc2n1` (centres unmarked) [Compound 149], the “% NH4-N Remaining After 2 Weeks Incubation” value reads like this: (0.6 ppm) 0%; (1.25 ppm) 0%; (2.5 ppm) 5%; (5 ppm) 26%; (10 ppm) 62%.
On to `CCOc1cnc2nc(S(=O)(=O)Nc3c(C)cccc3Cl)nn2c1` [Compound 202], for which the “% NH4-N Remaining After 2 Weeks Incubation” value turned out to be 0% (0.06 ppm), 0% (0.25 ppm), 0% (1 ppm) and 32% (4 ppm).
Take `CCOC(=O)CN(c1c(Cl)cccc1Cl)S(=O)(=O)c1nc2nc(C)cc(C)n2n1` [Compound 264]: the “% NH4-N Remaining After 2 Weeks Incubation” value (0.06 ppm) is given as 0%, the “% NH4-N Remaining After 2 Weeks Incubation” value (0.25 ppm) is on record as 1%, the “% NH4-N Remaining After 2 Weeks Incubation” value (1 ppm) turned out to be 26% and the “% NH4-N Remaining After 2 Weeks Incubation” value (4 ppm) is given as 37%.
With `Cc1nc2nc(S(=O)(=O)Nc3c(Cl)cccc3Cl)nn2c(C)c1Cl` [Compound 200], the “% NH4-N Remaining After 2 Weeks Incubation” value turned out to be 0% (0.06 ppm), 31% (0.25 ppm), 50% (1 ppm) and 60% (4 ppm).
With `Cc1cc(C)n2nc(S(=O)(=O)Nc3ccccc3Oc3ncc(C(F)(F)F)cc3Cl)nc2n1` [Compound 99], the “% NH4-N Remaining After 2 Weeks Incubation” value by setting is: (0.06 ppm) 0%; (1 ppm) 0%; (4 ppm) 57%.
As for `CSc1ccccc1NS(=O)(=O)c1nc2ncccn2n1` [Compound 135], the “% NH4-N Remaining After 2 Weeks Incubation” value by setting is: (0.01 ppm) 0%; (0.1 ppm) 0%; (1 ppm) 12%; (10 ppm) 100%.
As to `Cc1cc(C)n2nc(S(=O)(=O)Nc3ccccc3[S+]([O-])C(F)(F)C(F)F)nc2n1` (centres unmarked) [Compound 60], the “% NH4-N Remaining After 2 Weeks Incubation” value by setting is: (0.6 ppm) 0%; (1.25 ppm) 0%; (2.5 ppm) 8%; (5 ppm) 41%; (10 ppm) 58%.
